One substance from US7078389B2, “Chemically modified oligonucleotide for site-directed mutagenesis” (priority 1993, dated 2006) can be followed below.

In data set [1] the test system is supF gene within the pSP189 SV40 vector. Put plainly: Sequence analysis and colony hybridization of supF mutants from SV40 vector. Set-up: species or system monkey. The procedure:
Colony hybridization. Ampicillin resistant colonies of SY204 carrying shuttle vector plasmids with supF gene mutations, along with appropriate control colonies, were grown on LB/ampicillin plates and transferred onto replica nylon filters for additional growth and in situ lysis to allow colony hybridization by standard methods. The DNA was fixed to the filters by UV crosslinking, and the filters were incubated in 6×SSC, 5×Denhardt's solution, 0.5% SDS, and 5×10^5 cpm/ml of ^32P-labeled oligonucleotides at 42° C. for 18 hours. The filters were washed in 1×SSC and 0.1% SDS for 30 minutes at 25° C. and then in 1×SSC and 0.1% SDS at 42° C. for 2 hours. […] Binding of the oligonucleotide probes was determined by autoradiography.
DNA Sequencing. DNA was prepared for sequencing by isolating DNA from a 3 ml bacterial culture using a Promega Magic Miniprep kit (Promega, Madison, Wis.). DNA sequence data was obtained by direct chain termination sequencing of the plasmid DNA using automated methods.
Sequence analysis of targeted mutations. A set of 20 mutants generated in the supF gene in the SV40 vector by psoralen-AG10 (at the 1000:1 ratio) and UVA light were subjected to DNA sequence analysis.
In the analysis of mutagenesis in SV40 vectors, it is often difficult to determine if identical mutations arose independently or if they were the result of a single mutational event amplified by subsequent vector replication. In order to exclude the possibility that such sibling mutations were isolated in these experiments, use was made of an advantageous feature of the pSP189 system, in which over 100,000 different, random-sequence 8 base pair oligonucleotides were cloned into a region of pSP189 next to the supF gene. The vector DNA is prepared en masse from this library of vector clones containing the different 8 bp sequences. In this way, at the same time that the sequence of the supF gene in a mutant vector is ascertained, the 8 base pair signature sequence in that particular plasmid molecule can also be identified by reading a few extra bases further in the sequence data. This enables comparisons between the 8 bp signature sequences in plasmids bearing the same supF mutation to see if they are siblings from the same mutational event or if they are independent mutations.
Instead of direct sequencing, a technique of differential oligonucleotide hybridizations was used (Sidransky et al., Science 252:706–709 (1991)). In this assay, undertaken in an effort to streamline mutant analysis, ampicillin resistant bacterial colonies containing mutant supF genes were grown on nylon filters to allow nucleic acid hybridizations.

Data set [2] has as its system supF gene contained within the chromosomes of the LN12 cells. As to the kind of experiment: Targeted mutagenesis in mouse fibroblast LN12 cells. It counts as cell-based. The text has this: For the purposes of achieving targeted mutagenesis in mouse cells in vivo, the assay system to detect mutations in the chromosomes of mouse fibroblasts in culture developed by Glazer et al. was used (Proc. Natl. Acad. Sci. USA 83:1041–1044, (1986), which is incorporated by reference herein). This system allows detection and analysis of mutations occurring in the supF gene contained within the chromosomes of the LN12 cells, a derivative of mouse L cells into whose chromosomes multiple copies of the lambda supF shuttle vector were inserted.
The LN12 cells, growing in culture, were treated with the oligonucleotide, psoralen-AG10, which is designed to target mutations to base pair 167 in the supF gene via sequence-specific triplex formation and thereby delivery of the psoralen to that site. This oligonucleotide was used also in the lambda and the SV40 experiments. The oligonucleotide was added directly to the growth medium of the cells at various concentrations in the range of 0.1 to 50 μM. Two hours later, the cells were exposed to 0.07 J/cm^2 of UVA irradiation, the cells were allowed to grow for an additional 2 to 4 days, and then DNA was prepared from the cells to analyze for mutations in the supF gene. Using lambda in vitro packaging extracts to rescue the supF gene in the lambda vector from within the mouse DNA (as described by Glazer et al., cited above), mutations were detected in approximately 0.05% of the supF genes. Over forty mutant supF genes have been isolated in these recent experiments (from all concentrations of oligonucleotide studied), but the sequence of only one has been determined so far.

For “4′-hydroxymethyl-4,5′,8-trimethylpsoralen-^5′AGGAAGGGGG^3′ (DNA NAGGAAGGGGG; 4'-hydroxymethyl-4,5',8-trimethylpsoralen conjugated at 5' end, further chemistry not given here) [pso-AG10]”, in data set [1] (20 mutants, 1000:1 ratio, UVA, DNA sequencing), the “Share of sequenced mutations with the same base change at the targeted base pair” value was 55%. Also, the “Share of mutants carrying the T:A to A:T mutation at bp 167” value in data set [1] (42 mutants, colony hybridization) is 52%. The “Share of all viral genomes with intended base change (T:A to A:T at bp 167)” value in data set [1] (1000:1 ratio, UVA) is listed as “over 4%”. Further, in data set [1] (of 19 colonies assayed, colony hybridization), the “Number of colonies with hybridization specific to the 167 mutant probe” value is given as 9. The “Number of sequenced mutations with T:A to A:T transversion at base pair 167” value in data set [1] (of 20 mutants, 1000:1 ratio, UVA, DNA sequencing) came to 11. Also, in data set [1] (of 20 sequenced mutants), the “Number of point mutations at base pairs adjacent to the targeted base pair” value is 3 and the “Number of small deletions including or abutting the targeted base pair” value is recorded as 6. Also, the “Number of mutants carrying the T:A to A:T mutation at bp 167” value in data set [1] (of 42 mutants, colony hybridization (including 20 sequenced)) is given as 22. Moreover, the “Share of mutations that are the same T:A to A:T transversion, data taken together” value in data set [1] (sequencing and hybridization together) is reported as “at least 50%”. In addition, in data set [2] (0.1 to 50 μM in growth medium, 2 hours, UVA 0.07 J/cm^2, 2 to 4 days growth), the “Share of supF genes with mutations” value was “approximately 0.05%”. For the same substance, in data set [2] (0.1 to 50 μM, FIG. 6), the “Relation of supF mutation frequency to oligonucleotide concentration” value is “dose-response relationship”. The “Sequence of the one supF mutant determined” value in data set [2] (LN12 cells) is on record as “T:A to A:T transversion exactly at the targeted base pair”.
